As usually defined, the melting point is the temperature, or range, at which the solid turns liquid.

Structures are written as SMILES.

The source of these data is US8791144B2, “Substituted N-phenyl-1-(4-Pyridinyl)-1H-pyrazol-3-amines” (Janssen Pharmaceutica NV, priority 2009, dated 2014).

Data set [1] deals with T1, hα7-wt nAChR (Homo sapiens, UniProt P36544). The experiment in a line: Ca2+ flux imaging (FDSS): potentiation of the choline response. The data set is classed as cell-based. To be noted: Ca2+ assay as described in D.1, potentiation of choline response, hα7-wt nAChR; for EC50: read-out: Potency (pEC50) (converted); for Emax: read-out: % Efficacy. The gist of the method:
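Cells expressing human α7-wt nAChR loaded with fluo-4AM (2 μM final) up to 120 min; HBSS/10 mM HEPES/5 mM CaCl2/0.1% BSA buffer. Compound (0.01–30 μM) applied up to 10 min before 100 μM choline; peak fluorescence measured on FDSS relative to choline alone (100%). EC50 from sigmoidal curves.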
Background: Calcium assays in cells follow changes in intracellular calcium, usually with a dye or a luminescent sensor.

Data set [2] has as its target T1, hα7-wt nAChR. Nature of the data set: Patch-clamp current recording (whole-cell voltage clamp), potentiation of choline current and PAM type. More on the design: key: Type 0 compounds minimally enhance the effect size of the current elicited by 1 mM choline.; Type 1 compounds enhance the effect size of the current elicited by 1 mM choline but minimally alter the kinetics of the receptor.; Type 2 compounds enhance the effect size of the current elicited by 1 mM choline while reducing the rate and/or the extent of desensitization.; Type 3 compounds enhance the effect size of the current elicited by 1 mM choline. When tested at higher concentrations up to 10 μM they completely inhibit desensitization, in particular a 1 mM choline application of 250 milliseconds.; Type 4 compounds allow for an initial desensitization of the receptor followed by a re-opening of the receptor during agonist application. Format: cell-based. To be noted: hα7-wt nAChR-expressing GH4C1 cells, 1 mM choline. On the procedure:
The compounds of the present invention are classified as type 0-4, based on qualitative kinetic properties, as determined by whole-cell voltage-clamp recordings. This classification is based on the effect of an α7 PAM compound, as described hereinbefore, on the signal elicited by an agonist application. In particular, said agonist is choline at a concentration of 1 mM. In a preferred experimental setting, said α7 PAM compound and choline are simultaneously applied to the cell, as described hereinafter. Desensitization is defined as the closure of the receptor upon activation during the application of the agonist in whole-cell voltage-clamp electrophysiology measurements seen as the reduction of the […] current after initial activation by the agonist.
The definition of the PAM types 0-4 is described hereinafter: • Type 0 compounds minimally enhance the effect size of the current elicited by 1 mM choline. • Type 1 compounds enhance the effect size of the current elicited by 1 mM choline but minimally alter the kinetics of the receptor. In particular, the rate and the extent of desensitization, elicited by the agonist, is not affected. The compound-modulated response to 1 mM choline, therefore, is a close to linear scaling of the 1 mM choline response in absence of the α7 PAM compound. • Type 2 compounds enhance the effect size of the current elicited by 1 mM choline while reducing the rate and/or the extent of desensitization. • Type 3 compounds enhance the effect size of the current elicited by 1 mM choline. […] At low-potency concentrations of the α7 PAM compound, the agonist-induced activation, which is followed by desensitization, can still be separated from the compound-induced re-opening as an initial inward current-maximum. At higher potency concentrations of the α7 PAM compound, the re-opening occurs faster than the closure due to desensitization so that the initial current-maximum disappears.
A compound was considered to have interesting PAM-like activity when the potentiation of the peak current was at least 200% compared to the control choline response (=100%). Such compounds are classified as belonging to a particular PAM type in the Experimental Part. Compounds not meeting the condition are not classified as belonging to a particular PAM-type.
The compounds also have a potentiating effect on the response to choline when measured by whole-cell patch clamp electrophysiology in GH4C1 cells stably over-expressing the human wild-type α7 receptor.
Patch-clamp recording from mammalian cells has provided a powerful means of assessing the function of membrane-bound proteins thought to be subunits of ligand-gated ion channels. Activation of such proteins by endogenous or exogenous ligands cause opening of a pore associated with the receptor through which ions flow down their electrochemical gradient. In the case of the hα7-wt nAChR-expressing GH4C1 recombinant cell line the preferential permeability to calcium of this receptor means that calcium flows into the cell upon activation by ACh, choline and other nicotinic ligands giving rise to a calcium current. Since this receptor rapidly desensitizes in the presence of agonist it is important an application system is used which is capable of very rapid switching of solutions (<100 ms) to prevent partial or full desensitisation of receptor responses coincident with the time of agonist application. Consequently, a second convenient technique to assess the enhancement of nicotinic efficacy is patch-clamp recording from hα7-wt nAChR-expressing GH4C1 cells coupled with a rapid-application system.
• a) Assay Buffers • The external recording solution consisted of 152 mM NaCl, 5 mM KCl, 1 mM MgCl2, 1 mM Calcium, 10 mM HEPES; pH 7.3. […]

T1 sequence (P36544 23-502): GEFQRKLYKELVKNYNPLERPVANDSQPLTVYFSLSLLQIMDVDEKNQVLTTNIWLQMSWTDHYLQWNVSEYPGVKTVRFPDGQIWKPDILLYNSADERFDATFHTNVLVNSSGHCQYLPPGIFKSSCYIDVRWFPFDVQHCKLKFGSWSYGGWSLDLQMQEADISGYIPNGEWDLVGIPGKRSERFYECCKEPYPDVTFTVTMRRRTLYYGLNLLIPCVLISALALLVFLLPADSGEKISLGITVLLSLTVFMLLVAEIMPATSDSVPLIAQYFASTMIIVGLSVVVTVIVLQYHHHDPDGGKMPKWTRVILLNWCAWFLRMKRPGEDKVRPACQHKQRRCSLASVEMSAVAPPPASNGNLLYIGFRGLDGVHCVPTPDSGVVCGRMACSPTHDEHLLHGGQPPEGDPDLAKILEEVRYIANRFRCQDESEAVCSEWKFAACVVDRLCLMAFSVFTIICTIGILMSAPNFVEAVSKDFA

In the case of `CC[C@@H](O)Cc1cc(Nc2ccc(F)c(F)c2)nn1-c1ccnc(C)c1` [Compound 10, (alphaR)-3-[(3,4-difluorophenyl)amino]-alpha-ethyl-1-(2-methyl-4-pyridinyl)-1H-pyrazole-5-ethanol], the melting point was 164.7 °C. For the same compound, the EC50 on hα7-wt nAChR [1] is 832 nM. Moreover, on hα7-wt nAChR [2], the PAM type came out at 2.
Compound `CC[C@H](O)Cc1cc(Nc2cc(Cl)cc(OC)c2)nn1-c1ccnc(C)c1` [Compound 61, (alphaS)-3-[(3-chloro-5-methoxyphenyl)amino]-alpha-ethyl-1-(2-methyl-4-pyridinyl)-1H-pyrazole-5-ethanol] came in with a melting point of 125.3 °C. In addition, on hα7-wt nAChR [1], the EC50 is 794 nM. Moreover, at hα7-wt nAChR [2], the PAM type is 2.
For `Cc1cc(-n2nc(Nc3cccc(Cl)c3F)cc2CC(=O)NCC2CC2)ccn1` [Compound 79, 3-[(3-chloro-2-fluorophenyl)amino]-N-(cyclopropylmethyl)-1-(2-methyl-4-pyridinyl)-1H-pyrazole-5-acetamide], the melting point worked out at 220.5 °C. Also, the EC50 at hα7-wt nAChR [1] is 302 nM. In addition, the PAM type on hα7-wt nAChR [2] worked out at 4.
Compound `Cc1cc(-n2nc(Nc3ccc4c(c3)OC(F)(F)O4)cc2CC(=O)NCC2CC2)ccn1` [Compound 101, N-(cyclopropylmethyl)-3-[(2,2-difluoro-1,3-benzodioxol-5-yl)amino]-1-(2-methyl-4-pyridinyl)-1H-pyrazole-5-acetamide] came in with a melting point of 232.3 °C. For the same compound, the EC50 on hα7-wt nAChR [1] is 603 nM. Further, at hα7-wt nAChR [2], the PAM type stood at 2.
Compound `Cc1cc(-n2nc(Nc3cccc(OC(F)(F)F)c3)cc2CC(=O)NC(C)C)ccn1` [Compound 115, N-(1-methylethyl)-1-(2-methyl-4-pyridinyl)-3-[[3-(trifluoromethoxy)phenyl]amino]-1H-pyrazole-5-acetamide] came in with a melting point of 228.3 °C. Besides, at hα7-wt nAChR [1], the EC50 is 389 nM. Moreover, on hα7-wt nAChR [2], the PAM type is recorded as 1.
For `Cc1cc(-n2nc(Nc3cccc(Cl)c3F)cc2CC(=O)NCC2CC2)cc(C)n1` [Compound 80, 3-[(3-chloro-2-fluorophenyl)amino]-N-(cyclopropylmethyl)-1-(2,6-dimethyl-4-pyridinyl)-1H-pyrazole-5-acetamide] the same measures were 210.4 °C, 95.5 nM and 2.
With `CCNC(=O)Cc1cc(Nc2ccc(F)c(F)c2)nn1-c1ccnc(C)c1` [Compound 28, 3-[(3,4-difluorophenyl)amino]-N-ethyl-1-(2-methyl-4-pyridinyl)-1H-pyrazole-5-acetamide], the melting point amounted to 242.4 °C. Besides, on hα7-wt nAChR [1], the EC50 was 2510 nM. In addition, on hα7-wt nAChR [2], the PAM type was 2.
For `CCNC(=O)Cc1cc(Nc2cccc(Cl)c2F)nn1-c1ccnc(C)c1` [Compound 73, 3-[(3-chloro-2-fluorophenyl)amino]-N-ethyl-1-(2-methyl-4-pyridinyl)-1H-pyrazole-5-acetamide] the same measures were 205.1 °C, 1260 nM and 3.
For `Cc1cc(-n2nc(Nc3cccc(C(F)(F)F)c3)cc2CC(=O)NCC2CC2)ccn1` [Compound 47, N-(cyclopropylmethyl)-1-(2-methyl-4-pyridinyl)-3-[[3-(trifluoromethyl)phenyl]amino]-1H-pyrazole-5-acetamide] the same measures were 207.5 °C, 219 nM and 4.
Consider `Cc1cc(-n2nc(Nc3cccc(OC(F)(F)F)c3)cc2CC(=O)NC2CCC2)ccn1` [Compound 121, N-cyclobutyl-1-(2-methyl-4-pyridinyl)-3-[[3-(trifluoromethoxy)phenyl]amino]-1H-pyrazole-5-acetamide], for which the melting point came to 227.7 °C. Besides, the EC50 at hα7-wt nAChR [1] was 417 nM. Moreover, the PAM type at hα7-wt nAChR [2] was 2.
In the case of `COc1cc(Nc2cc(CC(=O)NCC3CC3)n(-c3ccnc(C)c3)n2)cc(C(F)(F)F)c1` [Compound 5, N-(cyclopropylmethyl)-3-[[3-methoxy-5-(trifluoromethyl)phenyl]amino]-1-(2-methyl-4-pyridinyl)-1H-pyrazole-5-acetamide], the melting point is 228.3 °C. The EC50 on hα7-wt nAChR [1] was 75.9 nM. For the same compound, at hα7-wt nAChR [2], the PAM type amounted to 4.
Consider `CNC(=O)Cc1cc(Nc2cccc(OC(F)(F)F)c2)nn1-c1ccnc(C)c1` [Compound 111, N-methyl-1-(2-methyl-4-pyridinyl)-3-[[3-(trifluoromethoxy)phenyl]amino]-1H-pyrazole-5-acetamide], for which the melting point is 231.5 °C. At hα7-wt nAChR [1], the Emax came to 822% and the EC50 is 2290 nM. Besides, on hα7-wt nAChR [2], the PAM type came out at 2.
In turn, `CCNC(=O)Cc1cc(Nc2cccc(OC(F)(F)F)c2)nn1-c1ccnc(C)c1` [Compound 113, N-ethyl-1-(2-methyl-4-pyridinyl)-3-[[3-(trifluoromethoxy)phenyl]amino]-1H-pyrazole-5-acetamide] gave a melting point of 210.3 °C. Also, the EC50 at hα7-wt nAChR [1] was 1150 nM. The PAM type on hα7-wt nAChR [2] was determined as 3.
For `COc1cc(Nc2cc(CC(=O)NC3CC3)n(-c3ccnc(C)c3)n2)cc(C(F)(F)F)c1` [Compound 46, N-cyclopropyl-3-[[3-methoxy-5-(trifluoromethyl)phenyl]amino]-1-(2-methyl-4-pyridinyl)-1H-pyrazole-5-acetamide] the same measures were 251.3 °C, 234 nM and 4.
`CC[C@H](O)Cc1cc(Nc2ccc(F)c(F)c2)nn1-c1ccnc(C)c1` [Compound 17, (alphaS)-3-[(3,4-difluorophenyl)amino]-alpha-ethyl-1-(2-methyl-4-pyridinyl)-1H-pyrazole-5-ethanol] yielded a melting point of 163.2 °C. Besides, at hα7-wt nAChR [1], the Emax is 880% and the EC50 is 1660 nM. Also, the PAM type at hα7-wt nAChR [2] is on record as 2.
`Cc1cc(-n2nc(Nc3cccc(OC(F)(F)F)c3)cc2CC(=O)NC2CC2)ccn1` [Compound 117, N-cyclopropyl-1-(2-methyl-4-pyridinyl)-3-[[3-(trifluoromethoxy)phenyl]amino]-1H-pyrazole-5-acetamide] gave a melting point of 224.6 °C. Also, on hα7-wt nAChR [1], the EC50 is 1200 nM. For the same compound, on hα7-wt nAChR [2], the PAM type was 3.
With `COc1cc(Cl)cc(Nc2cc(CC(=O)NCC3CC3)n(-c3ccnc(C)c3)n2)c1` [Compound 81, 3-[(3-chloro-5-methoxyphenyl)amino]-N-(cyclopropylmethyl)-1-(2-methyl-4-pyridinyl)-1H-pyrazole-5-acetamide], the melting point came to 248.7 °C. Besides, the EC50 at hα7-wt nAChR [1] was 148 nM. In addition, at hα7-wt nAChR [2], the PAM type worked out at 0.
`COc1cc(Nc2cc(CC(=O)NC3CCC3)n(-c3ccnc(C)c3)n2)cc(C(F)(F)F)c1` [Compound 48, N-cyclobutyl-3-[[3-methoxy-5-(trifluoromethyl)phenyl]amino]-1-(2-methyl-4-pyridinyl)-1H-pyrazole-5-acetamide]: the melting point was found to be 249.2 °C. For the same compound, the EC50 at hα7-wt nAChR [1] is 79.4 nM. The PAM type on hα7-wt nAChR [2] turned out to be 4.
